Structures can show the parent of a compound that is named as a salt. Where two headings read alike, the source gives them in different places.
Molecular target: hTRPV3 (Homo sapiens (Human), UniProt Q8NET8)
Experiment: Whole-cell patch clamp, hTRPV3 Phase 1 / Phase 2 currents
Type: cell-based
Procedure, shortened: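 Whole-cell recordings on induced TRPV3 cells replated on coverslips, held at −40 mV with 400 ms ramps from −120 to +100 mV every 5 s; currents read at −80 and +80 mV. Ringer's external solution; current activated by heating to ≥28 °C or 20 μM 2-APB.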

[1] = Phase 1 current, inward, whole-cell patch clamp, read-out: hTRPV3 Patch P1 Inwd
[2] = Phase 1 current, read-out: hTRPV3 (nM) (Phase 1)
[3] = Phase 2 current, inward, whole-cell patch clamp, read-out: hTRPV3 Patch P2 Inwd
[4] = Phase 2 current, read-out: hTRPV3 (nM) (Phase 2)
[5] = Phase 1 current, human TRPV3, read-out: hTRPV3 (nM) Phase 1

Chain of hTRPV3 (Q8NET8 whole entry): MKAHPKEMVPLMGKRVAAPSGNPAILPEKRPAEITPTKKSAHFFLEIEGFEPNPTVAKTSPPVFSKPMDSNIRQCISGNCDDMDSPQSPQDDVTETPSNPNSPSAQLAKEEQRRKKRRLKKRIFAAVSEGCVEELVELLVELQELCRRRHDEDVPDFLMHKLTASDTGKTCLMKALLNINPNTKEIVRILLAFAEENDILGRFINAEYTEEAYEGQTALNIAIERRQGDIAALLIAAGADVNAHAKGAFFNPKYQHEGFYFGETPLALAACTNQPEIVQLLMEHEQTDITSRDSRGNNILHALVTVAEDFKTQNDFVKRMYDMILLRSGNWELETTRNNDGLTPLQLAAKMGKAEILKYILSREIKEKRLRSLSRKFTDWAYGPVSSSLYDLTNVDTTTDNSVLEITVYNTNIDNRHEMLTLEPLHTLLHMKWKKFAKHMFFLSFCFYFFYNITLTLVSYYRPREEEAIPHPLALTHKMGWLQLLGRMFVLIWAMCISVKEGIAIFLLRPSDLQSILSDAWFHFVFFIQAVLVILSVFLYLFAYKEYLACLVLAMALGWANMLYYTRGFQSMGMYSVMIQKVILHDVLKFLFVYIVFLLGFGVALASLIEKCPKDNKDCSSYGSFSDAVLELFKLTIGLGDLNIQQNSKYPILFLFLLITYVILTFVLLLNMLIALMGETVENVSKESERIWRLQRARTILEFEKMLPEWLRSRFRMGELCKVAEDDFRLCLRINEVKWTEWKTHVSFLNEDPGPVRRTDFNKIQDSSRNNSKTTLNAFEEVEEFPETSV

Q: Which IC50 [1] does the source give for `Cc1ccccc1-c1ccc(N2CC[C@H](Nc3ccc(C(F)(F)F)cn3)C2)c(CO)n1` [Compound 1-379, (S)-(6-o-tolyl-3-(3-(5-(trifluoromethyl)pyridin-2-ylamino)pyrrolidin-1-yl)pyridin-2-yl)methanol] here?
A: > 1000 nM

Q: And the IC50 [2]?
A: > 3200 nM

Q: And the IC50 [3]?
A: > 1000 nM

Q: What about the IC50 [4] of the same compound?
A: > 3200 nM

Q: With `NCc1cc(-c2ccccc2)ccc1N1CC[C@H](Oc2ccc(C(F)(F)F)cn2)C1` [Compound 1-119, (S)-(4-(3-(5-(trifluoromethyl)pyridin-2-yloxy)pyrrolidin-1-yl)biphenyl-3-yl)methanamine] as the compound, how does the IC50 [3] read?
A: > 1000 nM

Q: And the IC50 [4]?
A: > 3200 nM

Q: Which IC50 [1] does the source give for `NCc1cc(-c2ccccc2Cl)ccc1N1CC[C@H](Oc2ccc(C(F)(F)F)cn2)C1` [Compound 1-118, (S)-(2′-chloro-4-(3-(5-(trifluoromethyl)pyridin-2-yloxy)pyrrolidin-1-yl)biphenyl-3-yl)methanamine] here?
A: > 1000 nM

Q: And the IC50 [2]?
A: ~1300 nM

Q: What about the IC50 [3] of the same compound?
A: > 1000 nM

Q: What about the IC50 [4] of the same compound?
A: < 3200 nM

Q: Which IC50 [1] does the source give for `COc1ccccc1N1CCC(Nc2ncc(C(F)(F)F)cc2Cl)C1` (centres unmarked) [Compound 1-370, 3-chloro-N-(1-(2-methoxyphenyl)pyrrolidin-3-yl)-5-(trifluoromethyl)pyridin-2-amine] here?
A: > 1000 nM

Q: Which results are given for `O=C(c1cc(Cl)ccn1)N1CCC(c2ccc(-c3ccccc3C3CC3)cc2CO)C1` (centres unmarked) [Compound 2-60, (4-chloropyridin-2-yl)(3-(2′-cyclopropyl-3-(hydroxymethyl)biphenyl-4-yl)pyrrolidin-1-yl)methanone]?
A: IC50 [5]: 26.5 nM; IC50 [1]: 10 to 100 nM

Q: Which results are given for `CC(C)Oc1ccccc1N1CC[C@H](Oc2ccc(C(F)(F)F)cn2)C1` [Compound 1-15, (S)-2-(1-(2-isopropoxyphenyl)pyrrolidin-3-yloxy)-5-(trifluoromethyl)pyridine]?
A: IC50 [1]: > 1000 nM; IC50 [3]: > 1000 nM

Q: For `OCc1cc(Oc2ccc(Cl)cc2)ccc1N1CC[C@H](Oc2ccccn2)C1` [Compound 1-283], which IC50 [1] is on record?
A: 100 to 1000 nM

Q: What about the IC50 [2] of the same compound?
A: 283 nM

Q: With `Cc1cccnc1CN1CCC(c2ccc(Oc3ccccc3C(C)C)cc2CO)C1` (centres unmarked) [Compound 2-89, (5-(2-isopropylphenoxy)-2-(1-((3-methylpyridin-2-yl)methyl)pyrrolidin-3-yl)phenyl)methanol hydrochloride] as the compound, how does the IC50 [5] read?
A: 1230 nM

Q: What about the IC50 [1] of the same compound?
A: > 1000 nM

Q: `N#Cc1cc(-c2ccccc2)ccc1N1CCC(Oc2ccc3ccccc3n2)C1=O` (centres unmarked) [Compound 1-108, 4-(2-oxo-3-(quinolin-2-yloxy)pyrrolidin-1-yl)biphenyl-3-carbonitrile] was tested. Which IC50 [3] did it give?
A: > 1000 nM

Q: And the IC50 [4]?
A: > 3200 nM

Q: How did the IC50 [5] turn out when `CC(C)c1ccccc1Oc1ccc(C2CC(=O)N(Cc3ncccc3Cl)C2)c(CO)c1` (centres unmarked) [Compound 2-88, 1-((3-chloropyridin-2-yl)methyl)-4-(2-(hydroxymethyl)-4-(2-isopropylphenoxy)phenyl)pyrrolidin-2-one] was run?
A: 169 nM

Q: What about the IC50 [1] of the same compound?
A: 100 to 1000 nM

Q: What about the IC50 (Phase 2 current, human TRPV3, read-out: hTRPV3 (nM) Phase 2) of the same compound?
A: 184 nM

Q: And the IC50 [3]?
A: 100 to 1000 nM

Q: Which IC50 [5] does the source give for `CC(C)c1ccccc1Oc1ccc(C2CCN(C(=O)c3ccccn3)C2)c(C(N)=O)c1` (centres unmarked) [Compound 2-31, 5-(2-isopropylphenoxy)-2-(1-picolinoylpyrrolidin-3-yl)benzamide] here?
A: 1370 nM

Q: What about the IC50 [1] of the same compound?
A: > 1000 nM

Q: How did the IC50 [1] turn out when `CCc1ccccc1-c1ccc(N2CC[C@H](Oc3ccc(C(F)(F)F)cn3)C2)c(CO)n1` [Compound 1-196, (S)-(6-(2-ethylphenyl)-3-(3-(5-(trifluoromethyl)pyridin-2-yloxy)pyrrolidin-1-yl)pyridin-2-yl)methanol] was run?
A: > 1000 nM

Q: And the IC50 [2]?
A: > 3200 nM

Q: Which IC50 [1] does the source give for `O=C(NCCO)c1cc(-c2ccccc2)ccc1N1CC[C@H](Oc2ccc(C(F)(F)F)cn2)C1` [Compound 1-153, (S)—N-(2-hydroxyethyl)-4-(3-(5-(trifluoromethyl)pyridin-2-yloxy)pyrrolidin-1-yl)biphenyl-3-carboxamide] here?
A: > 1000 nM

Q: What about the IC50 [2] of the same compound?
A: 4420 nM

Q: `CC(O)c1cc(F)ccc1Oc1ccc(N2CC[C@H](Oc3ccccn3)C2)c(CO)c1` (some centres unmarked) [Compound 1-326] was tested. Which IC50 [1] did it give?
A: > 1000 nM

Q: And the IC50 [2]?
A: 1470 nM

Q: What about the IC50 [3] of the same compound?
A: 100 to 1000 nM

Q: And the IC50 [4]?
A: 575 nM

— patent US12435061B2 (priority 2020, dated 2025)
